Where two headings read alike, the source gives them in different places.
Columns and labels:
THP-1 cells = system: THP-1 cells
Excerpt: We proceeded to perform some related to the proliferative stimulation of the peptide in presence of other divalent cations such as magnesium, copper, and manganese.

newborn rat thymocytes = system: newborn rat thymocytes
Excerpt: It was used an octapeptide with similar weight for the elaboration of the complex, to which was just the proline (4) and Glycine (5) original amino acids were interchanged by proline (4) and Glycine (5) resulting as […].

CD4 co-receptor = details: With-A
Procedure: (§1) The Analysis was performed by flow cytometry, using fluorescence intensity histograms, which allowed us to identify three regions: expression negative, low and high.

CD8 co-receptor = details: With-A
Procedure: as §1

LR.4 lymphoma = details: LR.4 + IMMP
Excerpt: Thymus and spleen were studied since they correspond to lymphatic organs, liver which corresponds to the main organ to which the metastases of abdominal tumors and kidney are directed are directed by their high blood irrigation.

Substance: Peptide LEDGPKFL + Zinc [IMMP]
- Concentration at which plateau / maximum response of stimulation is reached (THP-1 cells): 10-10 M
- Increase of potency by adding the ion (times) (THP-1 cells): ~500 times
- Increase of the potency of the peptide by zinc (times) (THP-1 cells): more than 200 times
- EC50 (THP-1 cells; read-out: Effective concentration 50): 0.01 nM
- Increase of thymocytes proliferation (newborn rat thymocytes; 10^-10 M, With-A): 35%
- Proliferation (% with respect to the control) (newborn rat thymocytes; 10^−6 (918 ng/mL), 24 hours): 106.6 ± 3.0%
- Proliferation (% with respect to the control) (newborn rat thymocytes; 10^−6 (918 ng/mL), Con A 50 pg/mL): 126.6 ± 3.0%
- Proliferation (% with respect to the control) (newborn rat thymocytes; 10^−7 (91.8 ng/mL), 24 hours): 125.1 ± 2.6 %
- Proliferation (% with respect to the control) (newborn rat thymocytes; 10^−7 (91.8 ng/mL), Con A 50 pg/mL): 125.1 ± 2.6 %
- Proliferation (% with respect to the control) (newborn rat thymocytes; 10^−7.5 (9.58 ng/mL), Con A 50 pg/mL): 127.4 ± 3.0 %
- Proliferation (% with respect to the control) (newborn rat thymocytes; 10^−8 (9.18 ng/mL), 24 hours): 120.3 ± 2.7 %
- Proliferation (% with respect to the control) (newborn rat thymocytes; 10^−8 (9.18 ng/mL), Con A 50 pg/mL): 128.3 ± 2.7 %
- Proliferation (% with respect to the control) (newborn rat thymocytes; 10^−9 (0.91 ng/mL), 24 hours): 123.3 ± 3.4 %
- Proliferation (% with respect to the control) (newborn rat thymocytes; 10^−9 (0.91 ng/mL), Con A 50 pg/mL): 133.3 ± 3.4 %
- Proliferation (% with respect to the control) (newborn rat thymocytes; 10^−10 (0.09 ng/mL), 24 hours): 135.6 ± 3.1 %
- Proliferation (% with respect to the control) (newborn rat thymocytes; 10^−10 (0.09 ng/mL), Con A 50 pg/mL): 135.6 ± 3.1 %
- Proliferation (% with respect to the control) (newborn rat thymocytes; 10^−11 (0.009 ng/mL), 24 hours): 130.5 ± 1.4 %
- Proliferation (% with respect to the control) (newborn rat thymocytes; 10^−11 (0.009 ng/mL), Con A 50 pg/mL): 130.5 ± 1.4 %
- Proliferation (% with respect to the control) (newborn rat thymocytes; 10^−12 (0.0009 ng/mL), Con A 50 pg/mL): 120.3 ± 3.2 %
- Expression Intensity of CD4, Fluorescence, High (CD4 co-receptor; [IMMP] 10^−6 M): 193.0 ± 3.3 arbitrary fluorescence intensity units
- Expression Intensity of CD4, Fluorescence, Low (CD4 co-receptor; [IMMP] 10^−6 M): 72.9 ± 7.4 arbitrary fluorescence intensity units
- Expression Intensity of CD4, Fluorescence, Negative (CD4 co-receptor; [IMMP] 10^−6 M): 5.0 ± 0.9 arbitrary fluorescence intensity units
- Expression Intensity of CD4, Fluorescence, High (CD4 co-receptor; [IMMP] 10^−7 M): 188.4 ± 4.9 arbitrary fluorescence intensity units
- Expression Intensity of CD4, Fluorescence, Low (CD4 co-receptor; [IMMP] 10^−7 M): 68.6 ± 8.0 arbitrary fluorescence intensity units
- Expression Intensity of CD4, Fluorescence, Negative (CD4 co-receptor; [IMMP] 10^−7 M): 4.5 ± 0.9 arbitrary fluorescence intensity units
- Expression Intensity of CD4, Fluorescence, High (CD4 co-receptor; [IMMP] 10^−8 M): 181.1 ± 4.7 arbitrary fluorescence intensity units
- Expression Intensity of CD4, Fluorescence, Low (CD4 co-receptor; [IMMP] 10^−8 M): 71.0 ± 6.4 arbitrary fluorescence intensity units
- Expression Intensity of CD4, Fluorescence, Negative (CD4 co-receptor; [IMMP] 10^−8 M): 4.7 ± 0.3 arbitrary fluorescence intensity units
- Expression Intensity of CD4, Fluorescence, High (CD4 co-receptor; [IMMP] 10^−9 M): 196.1 ± 5.4 arbitrary fluorescence intensity units
- Expression Intensity of CD4, Fluorescence, Low (CD4 co-receptor; [IMMP] 10^−9 M): 69.5 ± 5.0 arbitrary fluorescence intensity units
- Expression Intensity of CD4, Fluorescence, Negative (CD4 co-receptor; [IMMP] 10^−9 M): 4.5 ± 0.1 arbitrary fluorescence intensity units
- Expression Intensity of CD4, Fluorescence, High (CD4 co-receptor; [IMMP] 10^−10 M): 194.1 ± 10.0 arbitrary fluorescence intensity units
- Expression Intensity of CD4, Fluorescence, Low (CD4 co-receptor; [IMMP] 10^−10 M): 69.6 ± 5.2 arbitrary fluorescence intensity units
- Expression Intensity of CD4, Fluorescence, Negative (CD4 co-receptor; [IMMP] 10^−10 M): 5.0 ± 0.4 arbitrary fluorescence intensity units
- Expression Intensity of CD4, Fluorescence, High (CD4 co-receptor; [IMMP] 10^−11 M): 196.1 ± 5.4 arbitrary fluorescence intensity units
- Expression Intensity of CD4, Fluorescence, Low (CD4 co-receptor; [IMMP] 10^−11 M): 69.5 ± 7.0 arbitrary fluorescence intensity units
- Expression Intensity of CD4, Fluorescence, Negative (CD4 co-receptor; [IMMP] 10^−11 M): 4.5 ± 0.1 arbitrary fluorescence intensity units
- Expression Intensity of CD4, Fluorescence, High (CD4 co-receptor; [IMMP] 10^−12 M): 194.1 ± 7.3 arbitrary fluorescence intensity units
- Expression Intensity of CD4, Fluorescence, Low (CD4 co-receptor; [IMMP] 10^−12 M): 69.6 ± 7.2 arbitrary fluorescence intensity units
- Expression Intensity of CD4, Fluorescence, Negative (CD4 co-receptor; [IMMP] 10^−12 M): 5.0 ± 0.4 arbitrary fluorescence intensity units
- Expression Intensity of CD8, Fluorescence, High (CD8 co-receptor; [IMMP] 10^−6 M): 135.9 ± 3.3 arbitrary fluorescence intensity units
- Expression Intensity of CD8, Fluorescence, Low (CD8 co-receptor; [IMMP] 10^−6 M): 49.9 ± 37.4 arbitrary fluorescence intensity units
- Expression Intensity of CD8, Fluorescence, Negative (CD8 co-receptor; [IMMP] 10^−6 M): 3.1 ± 0.5 arbitrary fluorescence intensity units
- Expression Intensity of CD8, Fluorescence, High (CD8 co-receptor; [IMMP] 10^−7 M): 134.5 ± 4.9 arbitrary fluorescence intensity units
- Expression Intensity of CD8, Fluorescence, Low (CD8 co-receptor; [IMMP] 10^−7 M): 55.1 ± 4.9 arbitrary fluorescence intensity units
- Expression Intensity of CD8, Fluorescence, Negative (CD8 co-receptor; [IMMP] 10^−7 M): 2.4 ± 0.9 arbitrary fluorescence intensity units
- Expression Intensity of CD8, Fluorescence, High (CD8 co-receptor; [IMMP] 10^−8 M): 126.1 ± 4.7 arbitrary fluorescence intensity units
- Expression Intensity of CD8, Fluorescence, Low (CD8 co-receptor; [IMMP] 10^−8 M): 39.2 ± 5.4 arbitrary fluorescence intensity units
- Expression Intensity of CD8, Fluorescence, Negative (CD8 co-receptor; [IMMP] 10^−8 M): 3.2 ± 0.3 arbitrary fluorescence intensity units
- Expression Intensity of CD8, Fluorescence, High (CD8 co-receptor; [IMMP] 10^−9 M): 139.8 ± 5.4 arbitrary fluorescence intensity units
- Expression Intensity of CD8, Fluorescence, Low (CD8 co-receptor; [IMMP] 10^−9 M): 32.7 ± 5.0 arbitrary fluorescence intensity units
- Expression Intensity of CD8, Fluorescence, Negative (CD8 co-receptor; [IMMP] 10^−9 M): 3.2 ± 0.1 arbitrary fluorescence intensity units
- Expression Intensity of CD8, Fluorescence, High (CD8 co-receptor; [IMMP] 10^−10 M): 126.5 ± 7.3 arbitrary fluorescence intensity units
- Expression Intensity of CD8, Fluorescence, Low (CD8 co-receptor; [IMMP] 10^−10 M): 45.8 ± 3.2 arbitrary fluorescence intensity units
- Expression Intensity of CD8, Fluorescence, Negative (CD8 co-receptor; [IMMP] 10^−10 M): 4.1 ± 0.4 arbitrary fluorescence intensity units
- Expression Intensity of CD8, Fluorescence, High (CD8 co-receptor; [IMMP] 10^−11 M): 196.1 ± 5.4 arbitrary fluorescence intensity units
- Expression Intensity of CD8, Fluorescence, Low (CD8 co-receptor; [IMMP] 10^−11 M): 56.5 ± 4.0 arbitrary fluorescence intensity units
- Expression Intensity of CD8, Fluorescence, Negative (CD8 co-receptor; [IMMP] 10^−11 M): 3.5 ± 0.1 arbitrary fluorescence intensity units
- Expression Intensity of CD8, Fluorescence, High (CD8 co-receptor; [IMMP] 10^−12 M): 194.1 ± 7.3 arbitrary fluorescence intensity units
- Expression Intensity of CD8, Fluorescence, Low (CD8 co-receptor; [IMMP] 10^−12 M): 58.1 ± 3.2 arbitrary fluorescence intensity units
- Expression Intensity of CD8, Fluorescence, Negative (CD8 co-receptor; [IMMP] 10^−12 M): 2.0 ± 0.4 arbitrary fluorescence intensity units
- Metastases (animals with metastases detected/total number of animals) (LR.4 lymphoma; Kidney): 0/5
- Metastases (animals with metastases detected/total number of animals) (LR.4 lymphoma; Liver): 0/5
- Metastases (animals with metastases detected/total number of animals) (LR.4 lymphoma; Spleen): 0/5
- Metastases (animals with metastases detected/total number of animals) (LR.4 lymphoma; Thymus): 0/5

Source: patent US20150132328A1 (priority 2011, published 2015)
